Active and inactive are the calls of the source. The calls are words filed in the database; no cut-off is given here.
Assays:
[1] = test system: Rattus norvegicus; test: In vivo inhibition of beta adrenoceptor in Wistar rat assessed as reduction in isoprenaline-induced tachycardia at 5 mg/kg, iv administered as single dose 10 mins prior to isoprenaline injection; assay type: functional, organism-based
[2] = test system: Rattus norvegicus; test: Hypotensive activity in normotensive Wistar rat assessed as diastolic blood pressure at 5 mg/kg, iv measured after 60 mins (reference value: 86.5 to 119.4 mmHg); assay type: functional
[3] = test system: Rattus norvegicus; test: Cardiotoxicity in Wistar rat assessed as effect on heart rate at 5 mg/kg, iv measured after 15 mins (reference value: 323 to 374.5 bpm); assay type: toxicity, organism-based; settings: in vivo, 0.25 h
[4] = test system: Rattus norvegicus; test: Cardiotoxicity in Wistar rat assessed as effect on QT interval time at 5 mg/kg, iv measured after 15 mins (reference value: 57.7 to 61 ms); assay type: toxicity, organism-based; settings: in vivo, 0.25 h
[5] = test system: Rattus norvegicus; test: Cardiotoxicity in Wistar rat assessed as effect on PQ interval time at 5 mg/kg, iv measured after 5 mins (reference value: 52 to 57 ms); assay type: toxicity, organism-based; settings: in vivo
[6] = test system: Rattus norvegicus; test: Cardiotoxicity in Wistar rat assessed as effect on QTC interval time at 5 mg/kg, iv measured after 1 min (reference value: 136.7 to 146.2 ms); assay type: toxicity, organism-based; settings: in vivo
[7] = target: Beta-1 adrenergic receptor (Rattus norvegicus, UniProt P18090); test: Displacement of [3H]-CGP-12177 from adrenergic beta1 receptor in Wistar rat cortex incubated for 60 mins by microbeta liquid scintillation counting analysis
[8] = test system: Rattus norvegicus; test: Hypotensive activity in normotensive Wistar rat assessed as systolic blood pressure at 5 mg/kg, iv measured after 10 mins (reference value: 119.2 to 148.6 mmHg); assay type: functional
[9] = test system: Rattus norvegicus; test: Hypotensive activity in normotensive Wistar rat assessed as diastolic blood pressure at 5 mg/kg, iv measured after 20 mins (reference value: 86.5 to 119.4 mmHg); assay type: functional
[10] = target: Beta-2 adrenergic receptor (Cavia porcellus, UniProt Q8K4Z4); test: Antagonist activity at adrenergic beta2 receptor in isolated guinea pig trachea assessed as inhibition of isoprenaline-induced bronchodilation incubated for 20 mins; assay type: functional; settings: read-out: pA2 (converted)
[11] = test system: Rattus norvegicus; test: Cardiotoxicity in Wistar rat assessed as effect on heart rate at 5 mg/kg, iv measured after 1 min (reference value: 323 to 374.5 bpm); assay type: toxicity, organism-based; settings: in vivo
[12] = test system: Rattus norvegicus; test: Cardiotoxicity in Wistar rat assessed as effect on PQ interval time at 5 mg/kg, iv measured after 1 min (reference value: 52 to 57 ms); assay type: toxicity, organism-based; settings: in vivo
[13] = test system: Rattus norvegicus; test: Hypotensive activity in normotensive Wistar rat assessed as reduction in systolic blood pressure administered iv measured after 60 mins; assay type: functional; parameters: scale not given: the % may be the effect or the level left
[14] = test system: Rattus norvegicus; test: Hypotensive activity in normotensive Wistar rat assessed as diastolic blood pressure at 1 mg/kg, iv measured after 30 mins (reference value: 88.4 to 122.7 mmHg); assay type: functional
[15] = test system: Rattus norvegicus; test: Hypotensive activity in normotensive Wistar rat assessed as systolic blood pressure at 1 mg/kg, iv measured after 10 mins (reference value: 122.4 to 156.5 mmHg); assay type: functional
[16] = test system: Rattus norvegicus; test: Hypotensive activity in normotensive Wistar rat assessed as systolic blood pressure at 1 mg/kg, iv measured after 30 mins (reference value: 122.4 to 156.5 mmHg); assay type: functional
[17] = target: T1, Adrenergic receptor alpha-1 (Rattus norvegicus) (UniProt P15823+P23944+P43140); test: Antagonist activity at adrenergic alpha1 receptor in isolated Wistar rat aorta assessed as inhibition of […] contraction incubated for 20 mins
[18] = test system: Rattus norvegicus; test: Hypotensive activity in normotensive Wistar rat assessed as systolic blood pressure at 1 mg/kg, iv measured after 5 mins (reference value: 122.4 to 156.5 mmHg); assay type: functional
[19] = target: Beta-1 adrenergic receptor (Rattus norvegicus) (UniProt P18090); test: Displacement of [3H]-CGP-12177 from adrenergic beta1 receptor in Wistar rat cortex at 10^-5 M incubated for 60 mins by microbeta liquid scintillation counting analysis
[20] = test system: Rattus norvegicus; test: Hypotensive activity in normotensive Wistar rat assessed as systolic blood pressure at 1 mg/kg, iv measured after 60 mins (reference value: 122.4 to 156.5 mmHg); assay type: functional
[21] = test system: Rattus norvegicus; test: Hypotensive activity in normotensive Wistar rat assessed as diastolic blood pressure at 1 mg/kg, iv measured after 20 mins (reference value: 88.4 to 122.7 mmHg); assay type: functional
[22] = test system: Rattus norvegicus; test: Hypotensive activity in normotensive Wistar rat assessed as diastolic blood pressure at 1 mg/kg, iv measured after 60 mins (reference value: 88.4 to 122.7 mmHg); assay type: functional
[23] = test system: Rattus norvegicus; test: Hypotensive activity in normotensive Wistar rat assessed as diastolic blood pressure at 1 mg/kg, iv measured after 10 mins (reference value: 88.4 to 122.7 mmHg); assay type: functional
[24] = test system: Rattus norvegicus; test: Hypotensive activity in normotensive Wistar rat assessed as systolic blood pressure at 1 mg/kg, iv measured after 20 mins (reference value: 122.4 to 156.5 mmHg); assay type: functional
[25] = test system: Rattus norvegicus; test: Hypotensive activity in normotensive Wistar rat assessed as diastolic blood pressure at 1 mg/kg, iv measured after 5 mins (reference value: 88.4 to 122.7 mmHg); assay type: functional
[26] = test system: Rattus norvegicus; test: Hypotensive activity in normotensive Wistar rat assessed as diastolic blood pressure at 2.5 mg/kg, iv measured after 60 mins (reference value: 116.2 +/- 1.2 mmHg); assay type: functional
[27] = target: T1, Adrenergic receptor alpha-1 (Rattus norvegicus); test: Displacement of [3H][…]prazosin from adrenergic alpha1 receptor in Wistar rat cortex at 10^-5 M incubated for 30 mins by microbeta liquid scintillation counting analysis
[28] = test system: Rattus norvegicus; test: Hypotensive activity in normotensive Wistar rat assessed as systolic blood pressure at 0.5 mg/kg, iv measured after 5 mins (reference value: 116 +/- 4.6 mmHg); assay type: functional
[29] = test system: Rattus norvegicus; test: Antiarrhythmic activity in Wistar rat assessed as inhibition of adrenaline-induced premature ventricular extrasystoles administered iv 15 mins prior to adrenaline challenge; assay type: functional

Sequence of Beta-1 adrenergic receptor (P18090 whole entry): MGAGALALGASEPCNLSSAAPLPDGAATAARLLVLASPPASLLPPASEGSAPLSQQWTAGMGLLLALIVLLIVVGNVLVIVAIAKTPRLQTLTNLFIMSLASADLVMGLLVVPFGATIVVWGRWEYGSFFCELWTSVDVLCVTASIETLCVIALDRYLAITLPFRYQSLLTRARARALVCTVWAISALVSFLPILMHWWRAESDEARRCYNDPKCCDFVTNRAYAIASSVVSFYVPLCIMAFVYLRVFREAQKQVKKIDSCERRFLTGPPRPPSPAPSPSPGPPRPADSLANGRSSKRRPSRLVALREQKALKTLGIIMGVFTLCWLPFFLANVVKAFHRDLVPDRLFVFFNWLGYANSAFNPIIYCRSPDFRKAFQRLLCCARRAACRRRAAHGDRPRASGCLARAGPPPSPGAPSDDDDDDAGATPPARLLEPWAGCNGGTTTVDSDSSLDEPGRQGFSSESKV
Sequence of Beta-2 adrenergic receptor (Q8K4Z4 whole entry): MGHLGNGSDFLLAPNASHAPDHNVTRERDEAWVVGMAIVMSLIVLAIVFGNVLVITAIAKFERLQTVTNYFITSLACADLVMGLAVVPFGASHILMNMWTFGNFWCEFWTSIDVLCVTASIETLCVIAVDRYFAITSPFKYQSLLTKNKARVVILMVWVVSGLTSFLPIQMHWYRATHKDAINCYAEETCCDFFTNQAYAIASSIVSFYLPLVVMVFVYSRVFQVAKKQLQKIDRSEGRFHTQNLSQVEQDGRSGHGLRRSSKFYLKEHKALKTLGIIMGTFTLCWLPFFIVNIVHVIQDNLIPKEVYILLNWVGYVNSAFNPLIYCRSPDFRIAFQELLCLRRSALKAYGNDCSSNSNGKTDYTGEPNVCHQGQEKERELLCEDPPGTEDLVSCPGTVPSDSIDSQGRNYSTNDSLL
Sequence of Beta-1 adrenergic receptor (Rattus norvegicus) (P18090 whole entry, looked up): as the sequence (P18090 whole entry) above

IC50 [7] | Ki [7] | Kb [10] | pKb [17] | Structure (SMILES) | inhibition [1] | Activity [2] | Activity [3] | Time [4] | Time [5] | Time [6] | Activity [8] | Activity [9] | Activity [11] | Time [12] | Activity [14] | Activity [15] | Activity [16] | Activity [18] | Activity [20] | Activity [21] | further results
179 nM | 10.8 nM | 114 nM | – | COc1ccccc1CNCC(O)COc1cccc2c(=O)c3ccccc3oc12.Cl (racemic) | Active | 94.3 mmHg | 265 bpm | 66.7 ms | 63.3 ms | 151.4 ms | 147.7 mmHg | 100.6 mmHg | 246 bpm | 60.7 ms | – | – | – | – | – | – | Activity [13]: 7%
– | 1570 nM | – | 8.2 | Cl.O=c1c2ccccc2oc2cc(OCC(O)CN3CCN(c4ccccn4)CC3)ccc12 (racemic) | – | 74.7 mmHg | 295.3 bpm | 59 ms | 54.7 ms | 140.2 ms | 110.3 mmHg | 80.3 mmHg | 340.7 bpm | 55.3 ms | 100.2 mmHg | 136 mmHg | 127.2 mmHg | 138.3 mmHg | 122.7 mmHg | 103.8 mmHg | Activity [19]: inactive; Activity [22]: 94.2 mmHg; Activity [23]: 107 mmHg; Activity [24]: 131 mmHg; Activity [25]: 107.5 mmHg
106 nM | 357 nM | 41.4 nM | – | COc1ccc(CCNCC(O)COc2cccc3c(=O)c4ccccc4oc23)cc1OC.Cl (racemic) | Active | 98.6 mmHg | 265.7 bpm | 63.3 ms | 58 ms | 128.1 ms | 135.6 mmHg | 97.4 mmHg | 262.7 bpm | 62.7 ms | – | – | – | – | – | – | Activity [26]: 100.7 mmHg; Activity [27]: inactive
1420 nM | 213 nM | – | 7.52 | Cl.O=c1c2ccccc2oc2c(OCC(O)CN3CCN(c4ccccn4)CC3)cccc12 (racemic) | – | 96.6 mmHg | 343 bpm | 60.2 ms | 58 ms | 145.4 ms | 131.4 mmHg | 102.6 mmHg | 368.2 bpm | 58.2 ms | 110.5 mmHg | 146.2 mmHg | 140 mmHg | 146.2 mmHg | 138.7 mmHg | 133 mmHg | Activity [28]: 116.3 mmHg; ED50 [29]: 4.82 mg/kg; Activity [22]: 106.7 mmHg; Activity [23]: 113.5 mmHg; Activity [24]: 142.5 mmHg; Activity [25]: 111.7 mmHg

Reference: ChEMBL document CHEMBL4118148, “Design, synthesis and cardiovascular evaluation of some aminoisopropanoloxy derivatives of xanthone” (Bioorg Med Chem, 2018)
